Source: patent US20150376225A1, “NOVEL COMPOUNDS OF 11BETA-HYDROXY-STEROIDS FOR USE IN MITOCHONDRIA BIOGENESIS AND DISEASES ASSOCIATED WITH MITOCHONDRIAL DYSFUNCTION OR DEPLETION” (SPHAERA PHARMA PVTD. LTD., priority 2013, published 2015)

Test system: AMPK
Experiment: AMPK activation, cell based ELISA in Hep G2 cells
Conditions: 1 h incubation, DMSO control as 100%
Description: AMPK Activation Protocol:
AMPK activation potential of the compounds was evaluated using cell based ELISA.
Hepatoma (Hep G2) liver cells were maintained in a T 75 culture flask-containing 25 mM DMEM+10% fetal calf serum. The cells were maintained in a T 75 culture flask-containing medium (DMEM+10% fetal calf serum). On reaching a confluence of 70 to 80%, the cells were seeded in a 96 well plate at a density of 40,000 cells per well in 25 mM DMEM+10% FCS medium. The plates were then incubated at 37° C. with 5% CO2 for 24 hours. Various concentrations of drugs were prepared in DMSO and diluted to required concentration with the medium and incubated at 37° C. with 5% CO2 for 30 min and 1 h for Epicatechin analogs and 11-BHP analogs respectively. Metformin was used as positive control. Cells were fixed with 4% formaldehyde for 30 minutes at room temperature and washed three times with PBS containing 0.1% Triton X-100. Endogenous peroxidase was quenched with 1% H2O2 in PBS-T (0.1% Tween 20) for 30 minutes and washed three times in PBS-T. Cells were blocked with 1% BSA in PBS-T for 1 hour.

Structure (SMILES)	% activation pAMPK at 1 nM [%]
CC(O)C1CCC2C3CC=C4CC5(CC[C@]4(C)C3[C@@H](O)C[C@]12C)OCCO5 (stereo partly drawn) [Compound 1021, (10R,11S,13S)-17-(1-hydroxyethyl)-10,13-dimethyl-1,2,4,7,8,9,10,11,12,13,14,15,16,17-tetradecahydrospiro[cyclopenta[a]phenanthrene-3,2′-[1,3]dioxolan]-11-ol]	129
C[C@]12CCC(=O)CC1CCC1C2[C@@H](O)C[C@]2(C)C(=O)CCC12 (stereo partly drawn) [Compound 1034, (10S,11S,13S)-11-hydroxy-10,13-dimethyltetradecahydro-3H-cyclopenta[a]phenanthrene-3,17(2H)-dione]	104
CC(O)[C@H]1CC[C@H]2[C@@H]3CCC4=C[C@@H](O)CC[C@]4(C)[C@H]3[C@@H](O)C[C@]12C (stereo partly drawn) [Compound 1037, (3S,8S,9S,10R,11S,13S,14S,17S)-17-(1-hydroxyethyl)-10,13-dimethyl-2,3,6,7,8,9,10,11,12,13,14,15,16,17-tetradecahydro-1H-cyclopenta[a]phenanthrene-3,11-diol]	95
CC(=O)[C@H]1CCC2C3CCC4=CC(=O)CC[C@]4(C)C3[C@@](C)(O)C[C@@]21C (stereo partly drawn) [Compound 1035, (10R,11S,13S,17S)-17-acetyl-11-hydroxy-10,11,13-trimethyl-1,2,6,7,8,9,10,11,12,13,14,15,16,17-tetradecahydro-3H-cyclopenta[a]phenanthren-3-one]	102
CC(=O)[C@H]1CCC2C3CCC4C[C@@H](O)CC[C@]4(C)C3[C@@H](O)C[C@@]21C (stereo partly drawn) [Compound 1042, 1-((3S,10S,11S,13S,17S)-3,11-dihydroxy-10,13-dimethylhexadecahydro-1H-cyclopenta[a]phenanthren-17-yl)ethan-1-one]	96
CC(O)[C@H]1CCC2C3CCC4C[C@@H](O)CC[C@]4(C)C3[C@@H](O)C[C@@]21C (stereo partly drawn) [Compound 1040, (3S,10S,11S,13S,17S)-17-(1-hydroxyethyl)-10,13-dimethylhexadecahydro-1H-cyclopenta[a]phenanthrene-3,11-diol]	95
C[C@]12CCC(=O)C=C1CCC1C2[C@@H](O)C[C@@]2(C)C1CC[C@@H]2O (stereo partly drawn) [Compound 1018, (10R,11S,13S,17S)-11,17-dihydroxy-10,13-dimethyl-1,2,6,7,8,9,10,11,12,13,14,15,16,17-tetradecahydro-3H-cyclopenta[a]phenanthren-3-one]	106
[2H][C@]1(O)CC[C@@]2(C)C(=CCC3C2[C@@H](O)C[C@@]2(C)C3CC[C@@H]2C(C)=O)C1 (stereo partly drawn) [Compound 1045, 1-((3S,10R,11S,13S,17S)-3,11-dihydroxy-10,13-dimethyl-2,3,4,7,8,9,10,11,12,13,14,15,16,17-tetradecahydro-1H-cyclopenta[a]phenanthren-17-yl-3-d)ethan-1-one]	116
C[C@]12CCC(=O)C=C1CCC1C2[C@@H](O)C[C@@]2(C)C1CC[C@@]21OCC1=O (stereo partly drawn) [Compound 1028, (10R,11S,13S,17R)-11-hydroxy-10,13-dimethyl-1,6,7,8,9,10,11,12,13,14,15,16-dodecahydrospiro[cyclopenta[a]phenanthrene-17,2′-oxetane]-3,3′(2H)-dione]	103
C[C@]12C[C@H](O)C3C(CCC4=CC(=O)CC[C@@]43C)C1CCC2C(=O)CO (stereo partly drawn) [Compound 1048, (10R,11S,13S)-11-hydroxy-17-(2-hydroxyacetyl)-10,13-dimethyl-1,2,6,7,8,9,10,11,12,13,14,15,16,17-tetradecahydro-3H-cyclopenta[a]phenanthren-3-one]	108
CC(=O)C1CCC2C3CC=C4CC5(CC[C@]4(C)C3[C@@H](O)C[C@]12C)OCCO5 (stereo partly drawn) [Compound 1029, 1-((10R,11S,13S)-11-hydroxy-10,13-dimethyl-1,2,4,7,8,9,10,11,12,13,14,15,16,17-tetradecahydrospiro[cyclopenta[a]phenan-threne-3,2′-[1,3]dioxolan]-17-yl)ethan-1-one]	105
CC(=O)[C@H]1CCC2C3CC=C4C[C@@H](O)CC[C@]4(C)C3[C@@](C)(O)C[C@@]21C (stereo partly drawn) [Compound 1047, 1-((3S,10R,11S,13S,17S)-3,11-dihydroxy-10,11,13-trimethyl-2,3,4,7,8,9,10,11,12,13,14,15,16,17-tetradecahydro-1H-cyclopenta[a]phenanthren-17-yl)ethan-1-one]	119
C[C@]12C[C@H](O)C3C(CCC4=CC(=O)CC[C@@]43C)C1CCC2C(=O)O (stereo partly drawn) [Compound 1020, (10R,11S,13S)-11-hydroxy-10,13-dimethyl-3-oxo-2,3,6,7,8,9,10,11,12,13,14,15,16,17-tetradecahydro-1H-cyclopenta[a]phenanthrene-17-carboxylic acid]	132
C[C@]12CC[C@H](O)CC1=CCC1C2[C@@H](O)C[C@@]2(C)C1CC[C@@H]2O (stereo partly drawn) [Compound 1017, (3S,10R,11S,13S,17S)-10,13-dimethyl-2,3,4,7,8,9,10,11,12,13,14,15,16,17-tetradecahydro-1H-cyclopenta[a]phenanthrene-3,11,17-triol]	97
CO[C@H]1CC[C@@]2(C)C(=CCC3C2[C@@H](O)C[C@@]2(C)C3CC[C@@H]2C(C)=O)C1 (stereo partly drawn) [Compound 1038, 1-((3S,10R,11S,13S,17S)-11-hydroxy-3-methoxy-10,13-dimethyl-2,3,4,7,8,9,10,11,12,13,14,15,16,17-tetradecahydro-1H-cyclopenta[a]phenanthren-17-yl)ethan-1-one]	103
C[C@]12CCC(=O)C=C1CCC1C2[C@@H](O)C[C@]2(C)C(=O)CCC12 (stereo partly drawn) [Compound 1019, (10R,11S,13S)-11-hydroxy-10,13-dimethyl-1,6,7,8,9,10,11,12,13,14,15,16-dodecahydro-3H-cyclopenta[a]phenanthrene-3,17(2H)-dione]	103
CC(O)C1CCC2C3CCC4CC5(CC[C@]4(C)C3[C@@H](O)C[C@]12C)OCCO5 (stereo partly drawn) [Compound 1039, (10S,11S,13S)-17-(1-hydroxyethyl)-10,13-dimethylhexadecahydrospiro[cyclopenta[a]phenanthrene-3,2′-[1,3]dioxolan]-11-ol]	100
CC[C@H]1CCC2C3CC=C4C[C@@H](O)CC[C@]4(C)C3[C@@H](O)C[C@@]21C (stereo partly drawn) [Compound 1041, (3S,10R,11S,13R,17S)-17-ethyl-10,13-dimethyl-2,3,4,7,8,9,10,11,12,13,14,15,16,17-tetradecahydro-1H-cyclopenta[a]phenanthrene-3,11-diol]	95
C[C@]12CC/C(=N/O)C=C1CCC1C2[C@@H](O)C[C@]2(C)/C(=N/O)CCC12 (stereo partly drawn) [Compound 1022, (3Z,10R,11S,13S,17E)-11-hydroxy-10,13-dimethyl-1,6,7,8,9,10,11,12,13,14,15,16-dodecahydro-3H-cyclopenta[a]phenanthrene-3,17(2H)-dione dioxime]	129
CC(=O)[C@H]1CCC2C3CC=C4C[C@@H](O)CC[C@]4(C)C3[C@@H](O)C[C@@]21C (stereo partly drawn) [Compound 1016, 1-((3S,10R,11S,13S,17S)-3,11-dihydroxy-10,13-dimethyl-2,3,4,7,8,9,10,11,12,13,14,15,16,17-tetradecahydro-1H-cyclopenta[a]phenanthren-17-yl)ethan-1-one]	104
CN(C)C(=O)C1CCC2C3CCC4=CC(=O)CC[C@]4(C)C3[C@@H](O)C[C@]12C (stereo partly drawn) [Compound 1030, (10R,11S,13S)-11-hydroxy-N,N,10,13-tetramethyl-3-oxo-2,3,6,7,8,9,10,11,12,13,14,15,16,17-tetradecahydro-1H-cyclopenta[a]phenanthrene-17-carboxamide]	105
CN(C)C(=O)C1CCC2C3CCC4CC(=O)CC[C@]4(C)C3[C@@H](O)C[C@]12C (stereo partly drawn) [Compound 1033, (10S,11S,13S)-11-hydroxy-N,N,10,13-tetramethyl-3-oxohexadecahydro-1H-cyclopenta[a]phenanthrene-17-carboxamide]	107
C/C(=N/O)[C@H]1CCC2C3CCC4=C/C(=N\O)CC[C@]4(C)C3[C@@H](O)C[C@@]21C (stereo partly drawn) [Compound 1031, (10R,11S,13S,17S,Z)-11-hydroxy-17-((Z)-1-(hydroxyimino)ethyl)-10,13-dimethyl-1,2,6,7,8,9,10,11,12,13,14,15,16,17-tetradecahydro-3H-cyclopenta[a]phenanthren-3-one oxime]	109
CC(O)C1CCC2C3CC=C4C[C@@H](O)CC[C@]4(C)C3[C@@H](O)C[C@]12C (stereo partly drawn) [Compound 1036, (3S,10R,11S,13S)-17-(1-hydroxyethyl)-10,13-dimethyl-2,3,4,7,8,9,10,11,12,13,14,15,16,17-tetradecahydro-1H-cyclopenta[a]phenanthrene-3,11-diol]	102
C[C@]12CCC(=O)C=C1CCC1C2[C@@H](O)C[C@@]2(C)C1CC[C@]2(O)C(=O)O (stereo partly drawn) [Compound 1023, (10R,11S,13S,17R)-11,17-dihydroxy-10,13-dimethyl-3-oxo-2,3,6,7,8,9,10,11,12,13,14,15,16,17-tetradecahydro-1H-cyclopenta[a]phenanthrene-17-carboxylic acid]	127
CC(=O)[C@H]1CCC2C3CCC4=CC(=O)CC[C@]4(C)C3[C@@H](O)C[C@@]21C (stereo partly drawn) [Compound 1025, (10R,11S,13S,17S)-17-acetyl-11-hydroxy-10,13-dimethyl-1,2,6,7,8,9,10,11,12,13,14,15,16,17-tetradecahydro-3H-cyclopenta[a]phenanthren-3-one]	118
